Experimental data as given in patent US6444656B1, “Antiviral phosphonate nucleotides” (BioChem Pharma, Inc., priority 1992, dated 2002).

How the values were obtained:
Type in all cases: cell-based
[1] = test system: HBV; experiment: Anti-HBV activity: inhibition of HBV replication in 2.2.15 cells; details: twelve days postadministration
Description: (§1) The 2.2.15 cell line derived from HepG2 cells transfected with episomal HBV DNA (Sells et al (1987) Proc. Natl. Acad. Sci. USA 84:1005-1009 and (1988) J. Virol. 62:2836-2844) was used. The assay was performed basically as described by Ojwang et al. (1995) Antimicrobial Agents and Chemotherapy 39:2570-2573 ). The 2.2.15 cells are seeded (10^5 cells per well) in 300 ul of minimal essential medium supplemented with 10% fetal bovine serum, using 24-well plates pre-coated with 150 ul of 0.1 mg of collagen (rat tail) type I per ml reconstituted in 0.02 M acetic acid. The collagen treatment helped the cells 10 disperse evenly over the culture plate. Once the cells reach confluency (approximately 1 day), the culture medium is replaced every 2 days with medium containing various concentrations of the indicated test compound. In this experiment, the nucleosides 2′,3′-dideoxy-3′-thiacytidine (3TC) or 2′,3′-dideoxycytidine (ddC) are used as positive controls (Ojwang et al. (1995)). Twelve days postadministration of the test compounds, cells are harvested and DNA is prepared as described by Fennewald et al. ( (1995) Antiviral Res. 26:37-54.). At the same time, the culture medium is saved and analyzed for the presence of extracellular viral nucleic acids.
The integrated and episomal HBV DNAs are easily separated by using agarose gel electrophoresis which allows for the differential quantification of the two species of HBV DNA. […] As a molecular probe, a subgenomic fragment of the HBV DNA is cloned into the pCRII TA cloning vector (Invitrogen) plasmid between the two EcoR1 sites. The subgenomic HBV DNA fragment is obtained by using the PCR technique to amplify a portion of the HBV genome (nucleotide positions 2134 to 143). Total DNA isolated from 2.2.15 cells is used as the PCR template with primer sets corresponding to nucleotide positions 2134 to 2151 (forward) and 143 to 126 (reverse). […] In addition, the filters are also exposed to a photoimaging plate and quantitated, using a Fujix Bioimaging Analyzer System BAS 1000 (or similar) instrument.

[2] = test system: HIV-1; experiment: Anti-HIV activity: inhibition of HIV-1 replication in infected established cell lines; details: laboratory strains of HIV-1, established cell lines, 4 to 6 days post-infection
Description: (§2) Laboratory strains of HIV-1, were used to infect established cell lines by using a specific multiplicity of infection (MOI) of the virus for 1 hour at 37° C. prior to washing the cells and re-suspension in medium containing increasing concentrations of drug (or test compound). At 4 to 6 days post-infection, drug-treated and control wells are analyzed for an HIV-1 induced cytopathic effect and/or for the presence of viral reverse transcriptase (RT) or viral p24 antigen in the culture medium (Buckheit and Swanstrom (1991) AIDS Res. Human Retroviruses 7:295-302; Ojwang, et al (1994) J. Acquired Immune Deficiency Syndrome 7:560-570; Ojwang, J. O., et al (1995) Antimicrobial Agents and Chemotherapy. 39:2426-2435 and Rando et al (1995) J. Biol. Chem. 270:1754-1760).

[3] = test system: established cell lines; experiment: Cytotoxicity (CCTD50) reported with the anti-HIV-1 assay; details: cytotoxicity Table 1 (HIV-1 assay)
Description: as §2

[4] = Cytotoxicity (CC50) reported with the anti-HBV assay; details: human; cytotoxicity of Table 2 (HBV assay, 2.2.15 cells)
Description: as §1

[5] = test system: 2.2.15 cell line derived from HepG2 cells; experiment: as above; details: cytotoxicity of Table 2 (HBV assay, 2.2.15 cells)
Description: as §1

Compound	EC50 ([1]; Hepatitis B virus, read-out: EC50 (μg/ml), inhibition of HBV replication) [µg/mL]	EC50 ([2]; Human immunodeficiency virus 1, read-out: EC50 (μg/ml), inhibition of HIV-1 replication) [µg/mL]	CCTD50 [3] [µg/mL]	CC50 [4] [µg/mL]	EC50 (μg/ml), inhibition of HBV replication [1] [µg/mL]	EC50 (μg/ml), inhibition of HIV-1 replication [2] [µg/mL]	CC50 [5] [µg/mL]
Nc1nc(O)c2ncn(C[C@H]3O[C@@H](P(=O)(O)O)C[C@@H]3F)c2n1 [Compound 23]	> 30	> 10	>10	> 300			
Nc1nc2c(nc(Cl)n2CC2CCC(P(=O)(Oc3ccccc3)Oc3ccccc3)O2)c(=O)[nH]1 (stereo not drawn) [Example 16, [5-(2-Amino-8-chloro-6-oxo-1,6-dihydro-purin-9-ylmethyl)-tetrahydro-furan-2-yl]-phosphonic Acid Diphenyl Ester]			>10		11	0.46	>300
Ammonium; 5-(2-Amino-6-oxo-1,6-dihydro-purin-9-ylmethyl)-3,4-dihydroxy-tetrahydro-furan-2-phosphonate [Example 10]			>10		0.295	5	>300
